In US4138554A, “7-[D-α-(4-Hydroxy-1,5-naphthyridine-3-carboxamido)-α-phenyl (and p-hydroxyphenyl)acetamido]-3-carbamoyloxymethyl-3-cephem-4-carboxylic acids” (priority 1977, dated 1979):
Read-outs that look alike come from different tables or passages of the source.

Columns and labels:
Pseudomonas aeruginosa = experiment: MIC by agar dilution against 61 strains of Pseudomonas aeruginosa, secondary evaluation; format: cell-based; settings: Pseudomonas aeruginosa, read-out: MIC
How it was run: (§1)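 Agar dilution MICs were determined on Mueller-Hinton medium with two-fold compound steps and Steers' multipoint inoculation, across 31 primary-screen organisms and 61 P. aeruginosa strains.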

E. cloacae = experiment: MIC by serial two-fold agar dilution (Mueller-Hinton agar), E. cloacae; format: cell-based; settings: Enterobacter cloacae
How it was run: as §1

Question: Which results are given for NC(=O)OCC1=C(C(=O)O)N2C(=O)C(NC(=O)[C@H](NC(=O)c3cnc4cccnc4c3O)c3ccc(O)cc3)C2SC1 (single isomer, unassigned) [BB-S530, Sodium 7-[D-(-)-α-(4-hydroxy-1,5-naphthyridine-3-carboxamido)-α-(p-hydroxyphenyl)acetamido]-3-carbamoyloxymethyl-3-cephem-4-carboxylate]?
Answer: MIC (Pseudomonas aeruginosa; BBRI Pa-No. 21, Table 7): 1.6 µg/mL; MIC (Pseudomonas aeruginosa; BBRI Pa-No. 23, Table 7): 1.6 µg/mL; MIC (Pseudomonas aeruginosa; BBRI Pa-No. 24, Table 7): 50 µg/mL; MIC (Pseudomonas aeruginosa; BBRI Pa-No. 25, Table 7): 0.8 µg/mL; MIC (Pseudomonas aeruginosa; BBRI Pa-No. 26, Ps32, Table 7): 6.3 µg/mL; MIC (Pseudomonas aeruginosa; BBRI Pa-No. 28, CPH1C527/72, Table 7): 1.6 µg/mL; MIC (Pseudomonas aeruginosa; BBRI Pa-No. 29, D122, Table 7): 0.8 µg/mL; MIC (Pseudomonas aeruginosa; BBRI Pa-No. 30, Table 7): 0.8 µg/mL; MIC (Pseudomonas aeruginosa; BBRI Pa-No. 31, Table 7): < 0.2 µg/mL; MIC (Pseudomonas aeruginosa; BBRI Pa-No. 32, Table 7): 0.8 µg/mL; MIC (Pseudomonas aeruginosa; BBRI Pa-No. 33, Table 7): 0.8 µg/mL; MIC (Pseudomonas aeruginosa; BBRI Pa-No. 34, Table 7): 0.4 µg/mL; MIC (Pseudomonas aeruginosa; BBRI Pa-No. 35, Table 7): 1.6 µg/mL; MIC (Pseudomonas aeruginosa; BBRI Pa-No. 36, Table 7): < 0.2 µg/mL; MIC (Pseudomonas aeruginosa; BBRI Pa-No. 37, Table 7): 1.6 µg/mL; MIC (Pseudomonas aeruginosa; BBRI Pa-No. 38, Table 7): 3.1 µg/mL; MIC (Pseudomonas aeruginosa; BBRI Pa-No. 39, Table 7): 0.8 µg/mL; MIC (Pseudomonas aeruginosa; BBRI Pa-No. 41, Table 7): 1.6 µg/mL; MIC (Pseudomonas aeruginosa; BBRI Pa-No. 42, Table 7): 1.6 µg/mL; MIC (Pseudomonas aeruginosa; BBRI Pa-No. 43, Table 7): 1.6 µg/mL; MIC (Pseudomonas aeruginosa; BBRI Pa-No. 44 (unnamed strain), Table 7): 1.6 µg/mL; MIC (Pseudomonas aeruginosa; BBRI Pa-No. 51, Table 7): 0.8 µg/mL; MIC (Pseudomonas aeruginosa; BBRI Pa-No. 52, Table 7): 1.6 µg/mL; MIC (Pseudomonas aeruginosa; BBRI Pa-No. 53, Table 7): 0.8 µg/mL; MIC (Pseudomonas aeruginosa; BBRI Pa-No. 54, Table 7): 0.8 µg/mL; MIC (Pseudomonas aeruginosa; BBRI Pa-No. 55, Table 7): 1.6 µg/mL; MIC (Pseudomonas aeruginosa; BBRI Pa-No. 56, Table 7): 1.6 µg/mL; MIC (Pseudomonas aeruginosa; BBRI Pa-No. 57, Table 7): 0.8 µg/mL; MIC (Pseudomonas aeruginosa; BBRI Pa-No. 58, Table 7): 1.6 µg/mL; MIC (Pseudomonas aeruginosa; BBRI Pa-No. 59, Table 7): 0.8 µg/mL; MIC (Pseudomonas aeruginosa; BBRI Pa-No. 60, Table 7): 0.8 µg/mL; MIC (Pseudomonas aeruginosa; BBRI Pa-No. 61, Table 7): 1.6 µg/mL; MIC (Pseudomonas aeruginosa; BBRI Pa-No. 62, Table 7): 100 µg/mL; MIC (Pseudomonas aeruginosa; BBRI Pa-No. 64, Table 7): 1.6 µg/mL; MIC (Pseudomonas aeruginosa; BBRI Pa-No. 65, Table 7): 1.6 µg/mL; MIC (Pseudomonas aeruginosa; BBRI Pa-No. 66, Table 7): 0.8 µg/mL; MIC (Pseudomonas aeruginosa; BBRI Pa-No. 67, Table 7): 1.6 µg/mL; MIC (Pseudomonas aeruginosa; BBRI Pa-No. 68, Table 7): 1.6 µg/mL; MIC (Pseudomonas aeruginosa; BBRI Pa-No. 69, Table 7): 3.1 µg/mL; MIC (Pseudomonas aeruginosa; BBRI Pa-No. 70, K-Ps102(CR-102), Table 7): 0.8 µg/mL; MIC (Pseudomonas aeruginosa; GN315, BBRI Pa-No. 27, GN315, Table 7): 0.4 µg/mL; MIC (Pseudomonas aeruginosa; GN4925, BBRI Pa-No. 44, GN4925, Table 7): 1.6 µg/mL; MIC (E. cloacae; E. cloacae A9656, Table 6): 12.5 µg/mL; MIC (E. cloacae; E. cloacae A9657, Table 6): 100 µg/mL; MIC (E. cloacae; E. cloacae A9659, Table 6): 100 µg/mL
